From US20060019312A1, “CIS-interactions between MHC molecules and co-expressed proteins, related neurological and non-neurological disorders and related therapeutic/diagnostic utilities” (priority 2004, published 2006)

Tested on: GluR1 / MHC class I (b2m)
Assay: Co-immunoprecipitation of GluR1 with anti-b2m antibodies from brain slices, Western blot with anti-GluR1
Format: cell-based, mouse
Details: NMDA 40 micromolar in ACSF, 3 minutes, 30 min wash
Description: FIG. 6 is a representation of a Western blot which illustrates that the NMDA-dependent Glutamate receptor co-immunoprecipitates with an MHC Class I molecule; 400-micron-thick slices of adult mouse brain (wild type or b2m-/-TAP-/- [MHC class I-deficient]) were cut and allowed to recover in oxygenated (95% O2, 5% CO2) artifical cerebro-spinal fluid (ACSF) for 1 hour at room temperature; a subset of slices were then transferred to a recording chamber and allowed to recover for 40 min in flowing oxygenated ACSF (2 ml/minute); these slices were treated with NMDA (40 micromolar in ACSF, 3 minutes) and then washed for 30 min in oxygenated ACSF; at this time, all slices (treated and untreated) were homogenized as below and processed for immunoprecipitation with antibodies against b2m, IgG, or GluR1, and the resulting precipitates were probed in Western blots with antibodies against GluR1.
Hippocampal slice (400 um) samples were prepared by homogenizing tissue in NP40 Lysis buffer (50 mM Tris, 150 mM NaCl, 1 mM EDTA, 1% NP40, pH 7.6) with protease inhibitors (1 ug/mL aprotinin, 1 ug/mL leupeptin, 1 ug/mL pepstatin, 1 mM Na orthovanadate, 1 mM PMSF, phosphatase inhibitor cocktail sigma, 1:100). After letting the tissue sit on ice for 15 min., samples were centrifuged at 13,000 rpm, 4°, for 10 min. […]

## CN[C@H](CC(=O)O)C(=O)O [NMDA]
MHC-deficient (b2m-/- TAP-/-; KO) adult mouse brain slices
  co-immunoprecipitation of GluR1 with anti-b2m antibodies: fails to induce coimmunoprecipitation of GluR1
WT adult mouse brain slices
  co-immunoprecipitation of GluR1 with antibodies against the light chain of MHC class I (b2m): co-precipitates GluR1 only after NMDA treatment
